Experimental data reported in patent US20070009563A1, “PROCESS FOR COATING FIBER OR FABRIC WITH INSECTICIDE USING A TEMPERATURE OF 150°C-190°C FOR DRYING” (priority 2005, published 2007).

Key:
[1] = test system: mosquitoes; experiment: Efficiency test for mosquito net dipped in insecticide: 3 minutes contact, knock down and mortality; assay type: in vivo; conditions: for % KD, After Washing 5 Times / % mort., After Washing 5 Times: after 5 washes; for % KD, After Washing 5 Times / % KD, After Washing 10 Times / % KD, After Washing 15 Times / % KD, After Washing 20 Times / % KD, Before Washing: knock down after 60 minutes; for % mort., After Washing 5 Times / % mort., After Washing 10 Times / % mort., After Washing 15 Times / % mort., After Washing 20 Times / % mort., Before Washing: mortality after 24 hours; for % KD, After Washing 10 Times / % mort., After Washing 10 Times: after 10 washes; for % KD, After Washing 15 Times / % mort., After Washing 15 Times: after 15 washes; for % KD, After Washing 20 Times / % mort., After Washing 20 Times: after 20 washes
Procedure: The efficiency test for mosquito net dipped in insecticide/insect repellent is done by letting mosquitoes rest on the mosquito net for 3 minutes and then catching the mosquitoes, placing them in a clean container, and observing them to see which of the following conditions apply:
1. % Knock down (% KD): the number of mosquitoes that cannot move after 60 minutes, in some embodiments, must be more than 80%.
2. Mortality (% mort.): the mortality rate of mosquitoes after 24 hours, in some embodiments, must be more than 95%.

[2] = Quantity of deltamethrin on mosquito net fabric before and after washing (WHO washing procedure standard); assay type: physicochemical; conditions: for Deltamethrin on the fabric, After Washing 5 Times: after 5 washes; for Deltamethrin on the fabric, After Washing 10 Times: after 10 washes; for Deltamethrin on the fabric, After Washing 15 Times: after 15 washes; for Deltamethrin on the fabric, After Washing 20 Times: after 20 washes
Excerpt: In addition, the temperatures used for drying the fabric in the manufacturing process affect washing resistance. That is, the fabric which is dried at higher temperature can resist washing better than the fabric that is dried at lower temperature.

[3] = test system: insects; conditions: with small dosages; cited from earlier work
[4] = Quantity of deltamethrin on mosquito net fabric after drying at various temperatures; assay type: physicochemical; conditions: polyester net coated at 55 mg/m^2
Procedure: High temperatures in the range of 150° C.-190° C. are used in the process of fabric drying according to the present invention to create fiber stability and strengthen chemicals used for stabilizing that fiber in order to make the insecticide adhere to the fiber. However, this temperature range affects the insecticide degradation. For example, coating of a polyester mosquito net with deltamethrin requires a deltamethrin concentration of 55 mg/m^2. The material is then dried at various temperatures using the same length of time for drying.
The ratio of deltamethrin degradation is also affected by the length of time for drying.

In the case of CC1(C)[C@H](C(=O)O[C@H](C#N)c2cccc(Oc3ccccc3)c2)[C@@H]1C=C(Br)Br [deltamethrin, Deltamethrin], the “% KD, After Washing 5 Times” value ([1]; drying temperature 150 °C) is reported as 100%, the “% mort., After Washing 5 Times” value ([1]; drying temperature 150 °C) is reported as 100% and the “% KD, After Washing 10 Times” value ([1]; drying temperature 150 °C) is reported as 100%. The “% mort., After Washing 10 Times” value ([1]; drying temperature 150 °C) was 100%, the “% KD, After Washing 15 Times” value ([1]; drying temperature 150 °C) was 100% and the “% mort., After Washing 15 Times” value ([1]; drying temperature 150 °C) was 90%. The “% KD, After Washing 20 Times” value ([1]; drying temperature 150 °C) was 95%, the “% mort., After Washing 20 Times” value ([1]; drying temperature 150 °C) was 82% and the “% KD, Before Washing” value ([1]; drying temperature 150 °C) was 100%. The “% mort., Before Washing” value ([1]; drying temperature 150 °C) was 100%, the “% KD, After Washing 5 Times” value ([1]; drying temperature 160 °C) was 100% and the “% mort., After Washing 5 Times” value ([1]; drying temperature 160 °C) was 100%. For the same compound, the “% KD, After Washing 10 Times” value ([1]; drying temperature 160 °C) was 100%, the “% mort., After Washing 10 Times” value ([1]; drying temperature 160 °C) was 96% and the “% KD, After Washing 15 Times” value ([1]; drying temperature 160 °C) was 100%. The “% mort., After Washing 15 Times” value ([1]; drying temperature 160 °C) was 90%, the “% KD, After Washing 20 Times” value ([1]; drying temperature 160 °C) was 96% and the “% mort., After Washing 20 Times” value ([1]; drying temperature 160 °C) was 80%. The “% KD, Before Washing” value ([1]; drying temperature 160 °C) was 100%, the “% mort., Before Washing” value ([1]; drying temperature 160 °C) was 100% and the “% KD, After Washing 5 Times” value ([1]; drying temperature 170 °C) was 100%. The “% mort., After Washing 5 Times” value ([1]; drying temperature 170 °C) was 100%, the “% KD, After Washing 10 Times” value ([1]; drying temperature 170 °C) was 100% and the “% mort., After Washing 10 Times” value ([1]; drying temperature 170 °C) was 100%. For the same compound, the “% KD, After Washing 15 Times” value ([1]; drying temperature 170 °C) was 100%, the “% mort., After Washing 15 Times” value ([1]; drying temperature 170 °C) was 90% and the “% KD, After Washing 20 Times” value ([1]; drying temperature 170 °C) was 95%. For the same compound, the “% mort., After Washing 20 Times” value ([1]; drying temperature 170 °C) was 82%, the “% KD, Before Washing” value ([1]; drying temperature 170 °C) was 100% and the “% mort., Before Washing” value ([1]; drying temperature 170 °C) was 100%. For the same compound, the “% KD, After Washing 5 Times” value ([1]; drying temperature 180 °C) was 100%, the “% mort., After Washing 5 Times” value ([1]; drying temperature 180 °C) was 82% and the “% KD, After Washing 10 Times” value ([1]; drying temperature 180 °C) was 95%. For the same compound, the “% mort., After Washing 10 Times” value ([1]; drying temperature 180 °C) was 62%, the “% KD, After Washing 15 Times” value ([1]; drying temperature 180 °C) was 82% and the “% mort., After Washing 15 Times” value ([1]; drying temperature 180 °C) was 22%. The “% KD, After Washing 20 Times” value ([1]; drying temperature 180 °C) was 84%, the “% mort., After Washing 20 Times” value ([1]; drying temperature 180 °C) was 0% and the “% KD, Before Washing” value ([1]; drying temperature 180 °C) was 100%. The “% mort., Before Washing” value ([1]; drying temperature 180 °C) was 98%, the “% KD, After Washing 5 Times” value ([1]; drying temperature 190 °C) was 100% and the “% mort., After Washing 5 Times” value ([1]; drying temperature 190 °C) was 68%. The “% KD, After Washing 10 Times” value ([1]; drying temperature 190 °C) was 95%, the “% mort., After Washing 10 Times” value ([1]; drying temperature 190 °C) was 18% and the “% KD, After Washing 15 Times” value ([1]; drying temperature 190 °C) was 44%. The “% mort., After Washing 15 Times” value ([1]; drying temperature 190 °C) was 0%, the “% KD, After Washing 20 Times” value ([1]; drying temperature 190 °C) was 16% and the “% mort., After Washing 20 Times” value ([1]; drying temperature 190 °C) was 0%. For the same compound, the “% KD, Before Washing” value ([1]; drying temperature 190 °C) was 100%, the “% mort., Before Washing” value ([1]; drying temperature 190 °C) was 96% and the “Deltamethrin on the fabric, After Washing 5 Times” value ([2]; drying temperature 150 °C) was 40 mg/m^2. The “Deltamethrin on the fabric, After Washing 10 Times” value ([2]; drying temperature 150 °C) was 32 mg/m^2, the “Deltamethrin on the fabric, After Washing 15 Times” value ([2]; drying temperature 150 °C) was 16 mg/m^2 and the “Deltamethrin on the fabric, After Washing 20 Times” value ([2]; drying temperature 150 °C) was 10 mg/m^2. For the same compound, the “Deltamethrin on the fabric, Before Washing” value (from here on “Deltamethrin … Before Washing”) ([2]; drying temperature 150 °C) was 55 mg/m^2, the “Deltamethrin on the fabric, After Washing 5 Times” value ([2]; drying temperature 160 °C) was 42 mg/m^2 and the “Deltamethrin on the fabric, After Washing 10 Times” value ([2]; drying temperature 160 °C) was 36 mg/m^2. For the same compound, the “Deltamethrin on the fabric, After Washing 15 Times” value ([2]; drying temperature 160 °C) was 19 mg/m^2, the “Deltamethrin on the fabric, After Washing 20 Times” value ([2]; drying temperature 160 °C) was 12 mg/m^2 and the “Deltamethrin … Before Washing” value ([2]; drying temperature 160 °C) was 55 mg/m^2. For the same compound, the “Deltamethrin on the fabric, After Washing 5 Times” value ([2]; drying temperature 170 °C) was 44 mg/m^2, the “Deltamethrin on the fabric, After Washing 10 Times” value ([2]; drying temperature 170 °C) was 38 mg/m^2 and the “Deltamethrin on the fabric, After Washing 15 Times” value ([2]; drying temperature 170 °C) was 22 mg/m^2. The “Deltamethrin on the fabric, After Washing 20 Times” value ([2]; drying temperature 170 °C) was 16 mg/m^2, the “Deltamethrin … Before Washing” value ([2]; drying temperature 170 °C) was 55 mg/m^2 and the “Deltamethrin on the fabric, After Washing 5 Times” value ([2]; drying temperature 180 °C) was 26 mg/m^2. The “Deltamethrin on the fabric, After Washing 10 Times” value ([2]; drying temperature 180 °C) was 20 mg/m^2, the “Deltamethrin on the fabric, After Washing 15 Times” value ([2]; drying temperature 180 °C) was 16 mg/m^2 and the “Deltamethrin on the fabric, After Washing 20 Times” value ([2]; drying temperature 180 °C) was 4 mg/m^2. The “Deltamethrin … Before Washing” value ([2]; drying temperature 180 °C) was 37 mg/m^2, the “Deltamethrin on the fabric, After Washing 5 Times” value ([2]; drying temperature 190 °C) was 19 mg/m^2 and the “Deltamethrin on the fabric, After Washing 10 Times” value ([2]; drying temperature 190 °C) was 15 mg/m^2. For the same compound, the “Deltamethrin on the fabric, After Washing 15 Times” value ([2]; drying temperature 190 °C) was 8 mg/m^2, the “Deltamethrin on the fabric, After Washing 20 Times” value ([2]; drying temperature 190 °C) was 4 mg/m^2 and the “Deltamethrin … Before Washing” value ([2]; drying temperature 190 °C) was 25 mg/m^2. For the same compound, the “effectiveness relative to permethrin” value [3] was “more than 30 times”, the “Deltamethrin on the fabric of mosquito net after drying” value (“Deltamethrin … after drying” below) ([4]; drying temperature 150 °C) was 55 mg/m^2 and the “Deltamethrin … after drying” value ([4]; drying temperature 160 °C) was 55 mg/m^2. For the same compound, the “Deltamethrin … after drying” value ([4]; drying temperature 170 °C) was 55 mg/m^2, the “Deltamethrin … after drying” value ([4]; drying temperature 180 °C) was 37 mg/m^2 and the “Deltamethrin … after drying” value ([4]; drying temperature 190 °C) was 25 mg/m^2.
